{"source": "ChEMBL document CHEMBL5608181", "about": "“Discovery of indazole inhibitors for heat shock protein 90 as anti-cancer agents” (Eur J Med Chem, 2024)", "key": {"BT-474": {"system": "BT-474", "test": "Antiproliferative activity against human BT-474 cells assessed as inhibition of cell viability at 10 uM measured after 72 hrs by CellTiter 96 Aqueous One Solution Cell Proliferation Assay relative to control", "assay_type": "functional"}, "JIMT-1": {"system": "JIMT-1", "test": "Antiproliferative activity against human JIMT-1 cells assessed as inhibition of cell viability at 10 uM measured after 72 hrs by CellTiter 96 Aqueous One Solution Cell Proliferation Assay relative to control", "assay_type": "functional"}, "HEK293": {"system": "HEK293", "test": "Cytotoxicity against HEK293 cells assessed as reduction in cell viability at 10 uM measured after 72 hrs by CellTiter 96 Aqueous One Solution Cell Proliferation Assay", "assay_type": "toxicity, cell-based", "conditions": "human, hek293, 72 h"}}}
{"compound": "COCCn1nc(NC(=O)c2ccc3c(c2OC)C=CC(C)(C)O3)c2ccccc21", "values": [{"measurement": "inhibition at 10 µM", "setting": "BT-474", "value": "> 50", "unit": "%"}, {"measurement": "inhibition at 10 µM", "setting": "JIMT-1", "value": "> 50", "unit": "%"}, {"measurement": "Activity", "setting": "HEK293", "value": "Toxic"}]}
